Data reported in PubChem BioAssay AID248 (DTP/NCI, 2004).
Values joined by “and” are separate entries in the source; they are usually repeats but may differ in a detail not shown here. Equal values may be shown once. Inconclusive results and toxic doses are left out. Rule as the data show it: active = T/C of 150% or more; inactive = T/C below 125%.

Test system: L1210 leukemia ip in BDF1 mice, survival T/C
Assay: NCI In Vivo Anticancer Drug Screen. Data for tumor model L1210 Leukemia (intraperitoneal) in B6D2F1 (BDF1) mice
Details: endpoint: mean survival time, higher = longer survival
How it was run: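 Tumor cells were implanted, animals were treated, and survival was followed. The result divides the treated measurement by the vehicle-control measurement.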

[1] = dose: 100.0 mg/kg/injection, schedule: Q01DX009 (ip), vehicle: saline with Tween-80
[2] = dose: 100.0 mg/kg/injection, schedule: Q04DX003 (ip), vehicle: saline with Tween-80
[3] = dose: 200.0 mg/kg/injection, schedule: Q04DX003 (ip), vehicle: saline with Tween-80
[4] = dose: 400.0 mg/kg/injection, schedule: Q04DX003 (ip), vehicle: saline with Tween-80
[5] = dose: 100.0 mg/kg/injection, schedule: Q01DX009 (ip), vehicle: Klucel (hydroxypropylcellulose) (HPC)
[6] = dose: 200.0 mg/kg/injection, schedule: Q01DX009 (ip), vehicle: Klucel (hydroxypropylcellulose) (HPC)
[7] = dose: 400.0 mg/kg/injection, schedule: Q01DX009 (ip), vehicle: Klucel (hydroxypropylcellulose) (HPC)
[8] = dose: 200.0 mg/kg/injection, schedule: Q04DX002 (ip), vehicle: Klucel (hydroxypropylcellulose) (HPC)
[9] = dose: 400.0 mg/kg/injection, schedule: Q04DX002 (ip), vehicle: Klucel (hydroxypropylcellulose) (HPC)
[10] = dose: 100.0 mg/kg/injection, schedule: Q04DX003 (ip), vehicle: Klucel (hydroxypropylcellulose) (HPC)
[11] = dose: 200.0 mg/kg/injection, schedule: Q04DX003 (ip), vehicle: Klucel (hydroxypropylcellulose) (HPC)
[12] = dose: 400.0 mg/kg/injection, schedule: Q04DX003 (ip), vehicle: Klucel (hydroxypropylcellulose) (HPC)

Measured: T/C

CCOc1nc(=O)n(CC(=O)c2ccc(Cl)s2)cc1F
inactive: [1] 105 % of control | [2] 103 % of control | dose: 200.0 mg/kg/injection, schedule: Q01DX009 (ip), vehicle: saline with Tween-80 90 % of control | [3] 103 % of control | dose: 400.0 mg/kg/injection, schedule: Q01DX009 (ip), vehicle: saline with Tween-80 86 % of control | [4] 94 % of control

CC1(C)NC(=O)N(Cc2ccccc2)C1=O
inactive: [5] 94 % of control | [2] 98 % of control | [6] 97 % of control | [3] 110 % of control | [7] 100 % of control | [4] 105 % of control

COc1ccc(C(=O)N/N=C/c2cc(OC)ccc2O)cc1
inactive: dose: 100.0 mg/kg/injection, schedule: Q04DX002 (ip), vehicle: Klucel (hydroxypropylcellulose) (HPC) 110 % of control | [8] 104 % of control | [9] 100 % of control

CCCCCCCCCCCCCCCC(N)=O
inactive: [5] 93 % of control | [10] 90 % of control | [6] 102 % of control | [11] 87 % of control | [7] 94 % of control | [12] 98 % of control

NC(=S)N/N=C/c1ccc(Br)cn1
inactive: dose: 6.25 mg/kg/injection, schedule: Q01DX009 (ip), vehicle: saline with Tween-80 117 % of control | dose: 12.5 mg/kg/injection, schedule: Q01DX009 (ip), vehicle: saline with Tween-80 113 % of control

CSc1cc(N)nc(N)c1[N+](=O)[O-]
inactive: dose: 100.0 mg/kg/injection, schedule: Q01DX001 (ip), vehicle: Klucel (hydroxypropylcellulose) (HPC) 99 % of control | dose: 200.0 mg/kg/injection, schedule: Q01DX001 (ip), vehicle: Klucel (hydroxypropylcellulose) (HPC) 96 % of control | dose: 400.0 mg/kg/injection, schedule: Q01DX001 (ip), vehicle: Klucel (hydroxypropylcellulose) (HPC) 94 % of control

CCOC(=O)COc1cc(Cl)c(S(=O)(=O)F)cc1Cl
inactive: [10] 96 % of control | [11] 104 % of control | [12] 91 % of control

O=C(O)c1ccccc1S(=O)O
inactive: dose: 50.0 mg/kg/injection, schedule: Q04DX002 (ip), vehicle: other 119 % of control | dose: 100.0 mg/kg/injection, schedule: Q04DX002 (ip), vehicle: other 122 % of control | [8] 89 % of control | dose: 200.0 mg/kg/injection, schedule: Q04DX002 (ip), vehicle: other 91 % of control | [9] 103 % of control

CC(C)(C)c1ccc(SC(=O)Nc2cc([N+](=O)[O-])ccc2Cl)cc1
inactive: dose: 25.0 mg/kg/injection, schedule: Q01DX009 (ip), vehicle: saline with Tween-80 90 % of control | dose: 50.0 mg/kg/injection, schedule: Q01DX009 (ip), vehicle: saline with Tween-80 101 % of control | [1] 100 % of control and 92 % of control

CCCCC1(CC)COC(C)(CCc2ccc(OC)cc2)OC1 (centres undefined)
inactive: dose: 100.0 mg/kg/injection, schedule: Q01DX001 (ip), vehicle: acetone 93 % of control | dose: 200.0 mg/kg/injection, schedule: Q01DX001 (ip), vehicle: acetone 93 % of control | dose: 400.0 mg/kg/injection, schedule: Q01DX001 (ip), vehicle: acetone 90 % of control

CC(=O)c1cccc(NC(=O)Nc2ccc(CCO)cc2)c1
inactive: [5] 95 % of control | [6] 95 % of control | [7] 100 % of control

O=C(O)/C=C\C(=O)NCC1CCC(CNC(=O)/C=C\C(=O)O)CC1 (centres undefined)
inactive: [10] 98 % of control | [11] 100 % of control | [12] 102 % of control

C=CCCCCCCCCC(=O)NCC1CC1
inactive: [2] 98 % of control | [3] 92 % of control | [4] 88 % of control
